Among the test systems are EKVX; UACC-62; RXF 393; RPMI-8226; ACHN; M14; SN12C; K562; HOP-92; SK-MEL-5; UACC-257; HT-29; NCI-H460; SR; MCF7; DU-145; NCI-H522; UO-31; HL-60; IGROV-1.
What all share (experiment): NCI-60 cell line screen, 48 h

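Cultured in 96-well plates, cells were exposed to test compound for 48 hours across five concentrations. At the GI50, growth is halved.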 The source made the active and inactive calls. Cut-off read from the data, not from the text of the source: active = GI50 up to about 1.1 µM and inactive = higher.

With `O=C(/C(Cl)=C/c1ccccc1)c1ccccc1`, the GI50 with EKVX was 11.2 µM (inactive); with UACC-62, 8.55 µM (inactive); with RXF 393, 2.46 µM (inactive); with RPMI-8226 it was 2.33 µM (inactive); in the experiment on ACHN it was 2.24 µM (inactive); in the experiment with M14, 2.28 µM (inactive). For the same molecule, the GI50 in the experiment with SN12C is 1.82 µM (inactive); in the experiment on K562, 2.06 µM (inactive); in the experiment on HOP-92, 3.13 µM (inactive); in the experiment on SK-MEL-5, 3.11 µM (inactive); in the experiment on UACC-257, 6.9 µM (inactive); in the experiment on HT-29, 1.46 µM (inactive). The GI50 was 8.71 µM (inactive) with NCI-H460; 1.85 µM (inactive) with SR; 2.05 µM (inactive) with MCF7; 6.32 µM (inactive) in the experiment on DU-145; 1.58 µM (inactive) in the experiment with NCI-H522; 2.32 µM (inactive) in the experiment on UO-31.
Take `CC1CCCC(C(=O)CC2CC(=O)NC(=O)C2)C1=O` (centres undefined): the GI50 with EKVX, with HL-60, with UACC-62, with RXF 393, in the experiment with RPMI-8226 and in the experiment on ACHN was > 100 µM (inactive) in each case. For the same molecule, the GI50 in the experiment on M14, in the experiment with SN12C, in the experiment on K562, in the experiment with HOP-92, in the experiment with SK-MEL-5 and with UACC-257 was > 100 µM (inactive) in each case. The GI50 in the experiment on HT-29, with IGROV-1, with NCI-H460, in the experiment with SR, with MCF7 and in the experiment with DU-145 was > 100 µM (inactive) throughout. The GI50 in the experiment with UO-31 is > 100 µM (inactive).
With `ClCCCC1COc2ccccc2O1` (centres undefined), the GI50 is > 100 µM (inactive) in the experiment on EKVX; > 100 µM (inactive) with HL-60; 98.6 µM (inactive) in the experiment on UACC-62; > 100 µM (inactive) in the experiment with RXF 393; > 100 µM (inactive) in the experiment with ACHN; > 100 µM (inactive) with M14. Also, the GI50 in the experiment with SN12C was > 100 µM (inactive); in the experiment with K562, > 100 µM (inactive); in the experiment with HOP-92 it was 43.6 µM (inactive); with SK-MEL-5, > 100 µM (inactive); in the experiment on UACC-257, > 100 µM (inactive); with HT-29 it was > 100 µM (inactive). Moreover, the GI50 in the experiment with IGROV-1 is 46.3 µM (inactive); in the experiment on NCI-H460, > 100 µM (inactive); in the experiment on SR, > 100 µM (inactive); in the experiment on MCF7, > 100 µM (inactive); in the experiment with DU-145 it was > 100 µM (inactive); with NCI-H522, > 100 µM (inactive). In the experiment on UO-31, the GI50 was > 100 µM (inactive).
Take `COc1nc2c(c(=O)n1C)N=C(c1ccccc1)[C@H](C(CC(=O)c1ccccc1)c1ccccc1)C(c1ccccc1)N2` (some centres undefined): the GI50 in the experiment on EKVX is 22.2 µM (inactive); with HL-60, 38.4 µM (inactive); in the experiment on UACC-62, > 100 µM (inactive); with RXF 393 it was 28.5 µM (inactive); with RPMI-8226 it was 36.7 µM (inactive); in the experiment with ACHN it was 50.4 µM (inactive). Also, the GI50 was > 100 µM (inactive) in the experiment on M14; 44.7 µM (inactive) in the experiment on SN12C; 55.5 µM (inactive) in the experiment with K562; > 100 µM (inactive) in the experiment with HOP-92; 60.8 µM (inactive) in the experiment on SK-MEL-5; > 100 µM (inactive) in the experiment on UACC-257. In addition, the GI50 with HT-29 is 44.7 µM (inactive); in the experiment with IGROV-1 it was 49.3 µM (inactive); in the experiment with SR, 78 µM (inactive); with MCF7, 36.1 µM (inactive); with DU-145 it was > 100 µM (inactive); in the experiment with NCI-H522, 25.9 µM (inactive). Also, the GI50 in the experiment on UO-31 is 38.2 µM (inactive).
As to `COc1ccc(/N=C2\C(=N/c3ccc(OC)cc3)N(c3ccccc3[N+](=O)[O-])C(=S)N2c2ccc(OC)cc2)cc1`, the GI50 was 99.3 µM (inactive) with EKVX; 78.9 µM (inactive) with UACC-62; 23.9 µM (inactive) in the experiment with RXF 393; > 100 µM (inactive) in the experiment on RPMI-8226; > 100 µM (inactive) in the experiment with ACHN; > 100 µM (inactive) in the experiment on M14. For the same molecule, the GI50 is > 100 µM (inactive) in the experiment with SN12C; 35.5 µM (inactive) in the experiment with K562; > 100 µM (inactive) in the experiment with HOP-92; 35.2 µM (inactive) with SK-MEL-5; > 100 µM (inactive) in the experiment with IGROV-1; > 100 µM (inactive) in the experiment on SR. For the same molecule, the GI50 is > 100 µM (inactive) in the experiment on MCF7, > 100 µM (inactive) in the experiment on DU-145, 96.4 µM (inactive) in the experiment on NCI-H522 and 78 µM (inactive) with UO-31.
`N#Cc1cccc2c1Sc1ccccc1N2`: the GI50 in the experiment on EKVX was 19.1 µM (inactive); with HL-60, 27.3 µM (inactive); in the experiment with UACC-62, 27.2 µM (inactive); in the experiment on RXF 393 it was 3.7 µM (inactive); with RPMI-8226 it was 27.7 µM (inactive); in the experiment with ACHN, 33.4 µM (inactive). The GI50 in the experiment on M14 is 25.8 µM (inactive); in the experiment on SN12C it was 39.2 µM (inactive); with K562, 17.4 µM (inactive); in the experiment with HOP-92, 32.3 µM (inactive); with SK-MEL-5, 0.553 µM (active); in the experiment on UACC-257, 35.1 µM (inactive). Besides, the GI50 with HT-29 was 32.7 µM (inactive); in the experiment on IGROV-1, 45.1 µM (inactive); with NCI-H460, 32.5 µM (inactive); with SR, 33.7 µM (inactive); in the experiment on MCF7, 30.2 µM (inactive); in the experiment on DU-145 it was 40.6 µM (inactive). In addition, the GI50 in the experiment on UO-31 is 27.1 µM (inactive).
With `Cn1c2ccccc2c2nc3ccccc3c(Cl)c21`, the GI50 is > 100 µM (inactive) in the experiment with HL-60; 92.5 µM (inactive) in the experiment with UACC-62; 37.9 µM (inactive) in the experiment with RXF 393; > 100 µM (inactive) in the experiment on RPMI-8226; > 100 µM (inactive) with M14; > 100 µM (inactive) with SN12C. The GI50 is > 100 µM (inactive) in the experiment with K562; > 10 µM (inactive) in the experiment with HOP-92; > 100 µM (inactive) with UACC-257; > 100 µM (inactive) with HT-29; > 100 µM (inactive) with IGROV-1; > 100 µM (inactive) with NCI-H460. In addition, the GI50 in the experiment with SR, in the experiment with MCF7, in the experiment with DU-145 and in the experiment on NCI-H522 was > 100 µM (inactive) throughout.
As for `O=P1(O)c2ccccc2CSCc2ccccc21`, the GI50 in the experiment with EKVX, in the experiment on HL-60, in the experiment with UACC-62, in the experiment with RXF 393, in the experiment on ACHN and with M14 was > 100 µM (inactive) in each case. The GI50 with SN12C, with K562, with HOP-92, with SK-MEL-5, with UACC-257 and with HT-29 was > 100 µM (inactive) throughout. For the same molecule, the GI50 in the experiment with IGROV-1, with NCI-H460, with SR, in the experiment with MCF7, with DU-145 and in the experiment with NCI-H522 was > 100 µM (inactive) each time. In the experiment on UO-31, the GI50 is > 100 µM (inactive).
Take `Nc1nc(-c2ccccc2)cc(-c2ccc(OCc3ccccc3)cc2O)n1`: the GI50 in the experiment on EKVX was 50.4 µM (inactive); in the experiment with UACC-62, 64.7 µM (inactive); in the experiment with RXF 393 it was 27.5 µM (inactive); with RPMI-8226, 22.7 µM (inactive); in the experiment on ACHN, 31.3 µM (inactive); with M14, 30.8 µM (inactive). Besides, the GI50 in the experiment on SN12C was 76.9 µM (inactive); with K562, 43 µM (inactive); with HOP-92, 38.7 µM (inactive); in the experiment on SK-MEL-5, 17.5 µM (inactive); in the experiment on UACC-257, 48.8 µM (inactive); in the experiment with HT-29, 37.8 µM (inactive). The GI50 is 32.7 µM (inactive) in the experiment with IGROV-1; 40.4 µM (inactive) with NCI-H460; 39.8 µM (inactive) in the experiment on SR; 32.1 µM (inactive) in the experiment on MCF7; 73.6 µM (inactive) with DU-145; 20.5 µM (inactive) with NCI-H522. For the same molecule, the GI50 with UO-31 is 38.1 µM (inactive).
Regarding `O=C1C=C/C(=N\N=C(c2ccccc2)c2ccccc2)O1`, the GI50 in the experiment on EKVX, in the experiment on HL-60, in the experiment on UACC-62, with RXF 393, in the experiment with RPMI-8226 and in the experiment on M14 was > 10 µM (inactive) throughout. Further, the GI50 in the experiment with SN12C, with K562, in the experiment on HOP-92, with SK-MEL-5, with UACC-257 and in the experiment on HT-29 was > 10 µM (inactive) throughout. The GI50 in the experiment with IGROV-1, with SR, in the experiment with MCF7 and in the experiment with DU-145 was > 10 µM (inactive) throughout.
In the case of `CCCCC[C@@H]1OC(=O)[C@@]2(CC3c4ccccc4C2c2ccccc23)[C@H]1C(=O)OC`, the GI50 with EKVX was 39.7 µM (inactive); in the experiment on HL-60, 6.35 µM (inactive); in the experiment on UACC-62 it was 9.29 µM (inactive); in the experiment on RXF 393 it was 24.6 µM (inactive); in the experiment with RPMI-8226, 9.68 µM (inactive); in the experiment with ACHN it was 45.5 µM (inactive). Further, the GI50 with M14 was 55.2 µM (inactive); in the experiment with SN12C it was 74.3 µM (inactive); with K562, 15.8 µM (inactive); with HOP-92 it was > 100 µM (inactive); in the experiment on SK-MEL-5, 17.2 µM (inactive); in the experiment on UACC-257, 14.5 µM (inactive). In addition, the GI50 is 17.3 µM (inactive) in the experiment on HT-29; > 100 µM (inactive) in the experiment with IGROV-1; 11.6 µM (inactive) with NCI-H460; 10.1 µM (inactive) with SR; 21.8 µM (inactive) in the experiment with MCF7; > 100 µM (inactive) in the experiment on DU-145. The GI50 with UO-31 is 85.3 µM (inactive).

These data come from ChEMBL document CHEMBL1201862, “PubChem BioAssay data set” (2004).
